In brackets after ≈: the same amount, converted by molar mass.
Columns and labels:
Assay type in all cases: functional
Corynebacterium jeikeium [1] = experiment: Antimicrobial activity against Corynebacterium jeikeium at 0.12 ug/ml by broth microdilution method
Corynebacterium jeikeium [2] = experiment: Antimicrobial activity against Corynebacterium jeikeium at 0.25 ug/ml by broth microdilution method
[3] = system: Corynebacterium pseudodiphtheriticum; experiment: Antimicrobial activity against Corynebacterium pseudodiphtheriticum at <= 0.06 ug/ml by broth microdilution method
[4] = system: Corynebacterium pseudodiphtheriticum; experiment: Antimicrobial activity against Corynebacterium pseudodiphtheriticum at 0.25 ug/ml by broth microdilution method
[5] = system: Corynebacterium pseudodiphtheriticum; experiment: Antimicrobial activity against Corynebacterium pseudodiphtheriticum at 0.5 ug/ml by broth microdilution method
Corynebacterium striatum = experiment: Antimicrobial activity against Corynebacterium striatum at 0.25 ug/ml by broth microdilution method
Enterococcus avium [6] = experiment: Antimicrobial activity against Enterococcus avium at 0.5 ug/ml by broth microdilution method
Enterococcus avium [7] = experiment: Antimicrobial activity against Enterococcus avium at 1 ug/ml by broth microdilution method
Enterococcus avium [8] = experiment: Antimicrobial activity against Enterococcus avium at 4 ug/ml by broth microdilution method
[9] = system: Enterococcus casseliflavus; experiment: Antimicrobial activity against Enterococcus casseliflavus at 0.12 ug/ml by broth microdilution method
[10] = system: Enterococcus casseliflavus; experiment: Antimicrobial activity against Enterococcus casseliflavus at 4 ug/ml by broth microdilution method
Streptococcus [11] = experiment: Antimicrobial activity against beta hemolytic Streptococci group G at 0.5 ug/ml by broth microdilution method
Enterococcus durans = experiment: Antimicrobial activity against Enterococcus durans at 2 ug/ml by broth microdilution method
Aerococcus [12] = experiment: Antimicrobial activity against Aerococcus spp. at 0.12 ug/ml by broth microdilution method
Aerococcus [13] = experiment: Antimicrobial activity against Aerococcus spp. at 0.25 ug/ml by broth microdilution method
Bacillus sp. [14] = experiment: Antimicrobial activity against Bacillus spp. at <= 0.06 ug/ml by broth microdilution method
Bacillus sp. [15] = experiment: Antimicrobial activity against Bacillus spp. at 0.25 ug/ml by broth microdilution method; details: Bacillus sp. (in: firmicutes)
Bacillus sp. [16] = experiment: Antimicrobial activity against Bacillus spp. at 1 ug/ml by broth microdilution method; details: Bacillus sp. (in: firmicutes)
Bacillus cereus [17] = experiment: Antimicrobial activity against Bacillus cereus at <= 0.06 ug/ml by broth microdilution method
Bacillus cereus [18] = experiment: Antimicrobial activity against Bacillus cereus at 0.25 ug/ml by broth microdilution method
Bacillus cereus [19] = experiment: Antimicrobial activity against Bacillus cereus at 0.5 ug/ml by broth microdilution method
Bacillus cereus [20] = experiment: Antimicrobial activity against Bacillus cereus at 1 ug/ml by broth microdilution method
Corynebacterium sp. = experiment: Antimicrobial activity against Corynebacterium spp. at 0.12 ug/ml by broth microdilution method
[21] = system: Corynebacterium amycolatum; experiment: Antimicrobial activity against Corynebacterium amycolatum at <= 0.06 ug/ml by broth microdilution method
Rothia mucilaginosa [22] = experiment: Antimicrobial activity against Rothia mucilaginosa by broth microdilution method
Streptococcus [23] = experiment: Antimicrobial activity against beta hemolytic Streptococcus group C at 0.12 ug/ml by broth microdilution method
Streptococcus salivarius [24] = experiment: Antimicrobial activity against viridans group Streptococcus salivarius at 0.12 ug/ml by broth microdilution method
Streptococcus salivarius [25] = experiment: Antimicrobial activity against viridans group Streptococcus salivarius at 0.25 ug/ml by broth microdilution method
Streptococcus anginosus [26] = experiment: Antimicrobial activity against viridans group Streptococcus anginosus at 0.12 ug/ml by broth microdilution method
Streptococcus anginosus [27] = experiment: Antimicrobial activity against viridans group Streptococcus anginosus at 0.5 ug/ml by broth microdilution method
Streptococcus anginosus [28] = experiment: Antimicrobial activity against viridans group Streptococcus anginosus at 2 ug/ml by broth microdilution method
Streptococcus equinus = experiment: Antimicrobial activity against viridans group Streptococcus bovis at <= 0.06 ug/ml by broth microdilution method
Enterococcus gallinarum = experiment: Antimicrobial activity against Enterococcus gallinarum at 0.12 ug/ml by broth microdilution method
Enterococcus hirae [29] = experiment: Antimicrobial activity against Enterococcus hirae at <= 0.06 ug/ml by broth microdilution method
Enterococcus hirae [30] = experiment: Antimicrobial activity against Enterococcus hirae at 0.5 ug/ml by broth microdilution method
Enterococcus hirae [31] = experiment: Antimicrobial activity against Enterococcus hirae at 2 ug/ml by broth microdilution method
Enterococcus raffinosus [32] = experiment: Antimicrobial activity against Enterococcus raffinosus at 0.25 ug/ml by broth microdilution method
Enterococcus raffinosus [33] = experiment: Antimicrobial activity against Enterococcus raffinosus at 1 ug/ml by broth microdilution method
Enterococcus raffinosus [34] = experiment: Antimicrobial activity against Enterococcus raffinosus at 2 ug/ml by broth microdilution method
Micrococcus luteus = experiment: Antimicrobial activity against Micrococcus luteus at 0.12 ug/ml by broth microdilution method
Rothia mucilaginosa [35] = experiment: Antimicrobial activity against Rothia mucilaginosa at 1 ug/ml by broth microdilution method
Aerococcus [36] = experiment: Antimicrobial activity against Aerococcus spp. by broth microdilution method
[37] = system: Corynebacterium amycolatum; experiment: Antimicrobial activity against Corynebacterium amycolatum by broth microdilution method
Streptococcus oralis [38] = experiment: Antimicrobial activity against viridans group Streptococcus oralis at 0.5 ug/ml by broth microdilution method
Streptococcus oralis [39] = experiment: Antimicrobial activity against viridans group Streptococcus oralis at 2 ug/ml by broth microdilution method
[40] = system: Streptococcus parasanguinis; experiment: Antimicrobial activity against viridans group Streptococcus parasanguis at 0.12 ug/ml by broth microdilution method
[41] = system: Streptococcus constellatus; experiment: Antimicrobial activity against viridans group Streptococcus constellatus at <= 0.06 ug/ml by broth microdilution method
[42] = system: Streptococcus constellatus; experiment: Antimicrobial activity against viridans group Streptococcus constellatus at 1 ug/ml by broth microdilution method
[43] = system: Streptococcus constellatus; experiment: Antimicrobial activity against viridans group Streptococcus constellatus at 2 ug/ml by broth microdilution method
Streptococcus gordonii [44] = experiment: Antimicrobial activity against viridans group Streptococcus gordonii at 0.12 ug/ml by broth microdilution method
Streptococcus gordonii [45] = experiment: Antimicrobial activity against viridans group Streptococcus gordonii at 0.5 ug/ml by broth microdilution method
Streptococcus gordonii [46] = experiment: Antimicrobial activity against viridans group Streptococcus gordonii at 1 ug/ml by broth microdilution method
Streptococcus mitis [47] = experiment: Antimicrobial activity against viridans group Streptococcus mitis at 0.25 ug/ml by broth microdilution method
[48] = system: Streptococcus vestibularis; experiment: Antimicrobial activity against viridans group Streptococcus vestibularis at 0.5 ug/ml by broth microdilution method
Streptococcus mitis [49] = experiment: Antimicrobial activity against viridans group Streptococcus mitis by broth microdilution method
Streptococcus mutans = experiment: Antimicrobial activity against viridans group Streptococcus mutans by broth microdilution method

Q: With CC(=O)NC[C@H]1CN(c2ccc(N3CCOCC3)c(F)c2)C(=O)O1 [LINEZOLID] as the compound, how does the inhibition at 0.12 µg/mL (Corynebacterium jeikeium [1]) read?
A: 5.1%

Q: And the inhibition at 0.25 µg/mL (Corynebacterium jeikeium [2])?
A: 67.8%

Q: What about the Inhibition [3] of the same compound?
A: 0%

Q: What about the inhibition at 0.25 µg/mL [4] of the same compound?
A: 36.4%

Q: What about the inhibition at 0.5 µg/mL [5] of the same compound?
A: 90.9%

Q: What about the inhibition at 0.25 µg/mL (Corynebacterium striatum) of the same compound?
A: 88%

Q: And the inhibition at 0.5 µg/mL (Enterococcus avium [6])?
A: 4.3%

Q: What about the inhibition at 1 µg/mL (Enterococcus avium [7]) of the same compound?
A: 52.6%

Q: And the inhibition at 4 µg/mL (Enterococcus avium [8])?
A: 100%

Q: And the inhibition at 0.12 µg/mL [9]?
A: 0%

Q: And the inhibition at 4 µg/mL [10]?
A: 100%

Q: And the inhibition at 0.5 µg/mL (Streptococcus [11])?
A: 8.2%

Q: What about the inhibition at 2 µg/mL (Enterococcus durans) of the same compound?
A: 100%

Q: What about the inhibition at 0.12 µg/mL (Aerococcus [12]) of the same compound?
A: 0%

Q: And the inhibition at 0.25 µg/mL (Aerococcus [13])?
A: 4.5%

Q: What about the Inhibition (Bacillus sp. [14]) of the same compound?
A: 0.7%

Q: And the inhibition at 0.25 µg/mL (Bacillus sp. [15])?
A: 4.9%

Q: What about the inhibition at 1 µg/mL (Bacillus sp. [16]) of the same compound?
A: 97.2%

Q: And the Inhibition (Bacillus cereus [17])?
A: 1.7%

Q: And the inhibition at 0.25 µg/mL (Bacillus cereus [18])?
A: 3.3%

Q: And the inhibition at 0.5 µg/mL (Bacillus cereus [19])?
A: 30%

Q: And the inhibition at 1 µg/mL (Bacillus cereus [20])?
A: 98.3%

Q: What about the inhibition at 0.12 µg/mL (Corynebacterium sp.) of the same compound?
A: 13.6%

Q: And the Inhibition [21]?
A: 0%

Q: What about the MIC50 (Rothia mucilaginosa [22]) of the same compound?
A: 0.5 µg/mL (≈ 1.48 µM)

Q: What about the MIC90 (Rothia mucilaginosa [22]) of the same compound?
A: 1 µg/mL (≈ 2.96 µM)

Q: And the inhibition at 0.12 µg/mL (Streptococcus [23])?
A: 3%

Q: What about the inhibition at 0.12 µg/mL (Streptococcus salivarius [24]) of the same compound?
A: 1.1%

Q: What about the inhibition at 0.25 µg/mL (Streptococcus salivarius [25]) of the same compound?
A: 3.3%

Q: And the inhibition at 0.12 µg/mL (Streptococcus anginosus [26])?
A: 2.9%

Q: What about the inhibition at 0.5 µg/mL (Streptococcus anginosus [27]) of the same compound?
A: 33.7%

Q: What about the inhibition at 2 µg/mL (Streptococcus anginosus [28]) of the same compound?
A: 100%

Q: What about the Inhibition (Streptococcus equinus) of the same compound?
A: 0%

Q: What about the inhibition at 0.12 µg/mL (Enterococcus gallinarum) of the same compound?
A: 0%

Q: And the Inhibition (Enterococcus hirae [29])?
A: 0%

Q: And the inhibition at 0.5 µg/mL (Enterococcus hirae [30])?
A: 0%

Q: What about the inhibition at 2 µg/mL (Enterococcus hirae [31]) of the same compound?
A: 100%

Q: What about the inhibition at 0.25 µg/mL (Enterococcus raffinosus [32]) of the same compound?
A: 0%

Q: And the inhibition at 1 µg/mL (Enterococcus raffinosus [33])?
A: 46.2%

Q: And the inhibition at 2 µg/mL (Enterococcus raffinosus [34])?
A: 100%

Q: And the inhibition at 0.12 µg/mL (Micrococcus luteus)?
A: 0%

Q: And the inhibition at 1 µg/mL (Rothia mucilaginosa [35])?
A: 94.4%

Q: What about the MIC50 (Aerococcus [36]) of the same compound?
A: 1 µg/mL (≈ 2.96 µM)

Q: And the MIC90 (Aerococcus [36])?
A: 2 µg/mL (≈ 5.93 µM)

Q: And the MIC50 [37]?
A: 0.25 µg/mL (≈ 0.741 µM)

Q: What about the MIC90 [37] of the same compound?
A: 0.25 µg/mL (≈ 0.741 µM)

Q: What about the inhibition at 0.5 µg/mL (Streptococcus oralis [38]) of the same compound?
A: 34.5%

Q: And the inhibition at 2 µg/mL (Streptococcus oralis [39])?
A: 99.3%

Q: And the inhibition at 0.12 µg/mL [40]?
A: 0%

Q: What about the Inhibition [41] of the same compound?
A: 1.1%

Q: What about the inhibition at 1 µg/mL [42] of the same compound?
A: 98.9%

Q: What about the inhibition at 2 µg/mL [43] of the same compound?
A: 100%

Q: And the inhibition at 0.12 µg/mL (Streptococcus gordonii [44])?
A: 0%

Q: What about the inhibition at 0.5 µg/mL (Streptococcus gordonii [45]) of the same compound?
A: 33.3%

Q: And the inhibition at 1 µg/mL (Streptococcus gordonii [46])?
A: 100%

Q: What about the inhibition at 0.25 µg/mL (Streptococcus mitis [47]) of the same compound?
A: 4.4%

Q: What about the inhibition at 0.5 µg/mL [48] of the same compound?
A: 36.4%

Q: What about the MIC50 (Streptococcus mitis [49]) of the same compound?
A: 1 µg/mL (≈ 2.96 µM)

Q: What about the MIC90 (Streptococcus mitis [49]) of the same compound?
A: 1 µg/mL (≈ 2.96 µM)

Q: And the MIC50 (Streptococcus mutans)?
A: 1 µg/mL (≈ 2.96 µM)

Q: And the MIC90 (Streptococcus mutans)?
A: 2 µg/mL (≈ 5.93 µM)
